According to patent US8952147B2, “Conjugates, preparation thereof, and therapeutic use thereof” (Sanofi, priority 2009, dated 2015):

What was measured:
Assay type in all cases: cell-based
HCT116 cells = assay: Inhibition of proliferation of HCT116 cells by the cytotoxic agents (14C-thymidine incorporation); details: Homo sapiens, HCT-116, 3 days culture, 14C-thymidine incorporation at 96 hours
Method: (§1) Evaluation of the inhibition of proliferation of MDA-MB-231, MDA-A1 and HCT116 cell lines by the cytotoxic agents, study performed on the compounds of formula (II) of the type SZa with Za═SMe or of the type —C(═O)—ZbRb with ZbRb=OMe or OCH2—CH═CH2 The MDA-MB-231, MDA-A1 or HCT116 cells in their exponential growth phase are trypsinized and resuspended in their respective culture medium (DMEM/F12 Gibco #21331, 10% FCS Gibco #10500-056, […] Gibco #25030 for the MDA cells; DMEM Gibco #11960, 10% FCS Gibco #10500-056, 2 mM glutamine Gibco #25030 for the HCT116 cells). The cell suspension is seeded in Cytostar 96-well culture plates (GE Healthcare Europe, #RPNQ0163) in the whole culture medium containing serum at a density of 5000 cells/well (MDA-MB-231, MDA-A1, HCT116). After incubation for 4 hours, successive dilutions of the cryptophycin derivatives are added to the wells at concentrations decreasing from 10^−7 to 10^−12 M (in triplicate for each concentration). The cells are cultured for 3 days at 37° C. under an atmosphere containing 5% CO2 in the presence of the cytotoxic agents. On the 4th day, 10 μl of a ^14C-thymidine solution (0.1 μCi/well, Perkin Elmer #NEC56825000) are added to each well. The incorporation of ^14C-thymidine is measured 96 hours after the start of the experiment using a microbeta radioactivity counter (Perkin Elmer). The data are expressed in the form of a percentage of survival by determining the ratio between the reduced count obtained with the cells treated with cytotoxic agent and the count obtained with the cells of the control wells (treated with the culture medium alone).

MDA-MB-231 cells = assay: Inhibition of proliferation of MDA-MB-231 cells by the cytotoxic agents (14C-thymidine incorporation); details: Homo sapiens, 3 days culture, 14C-thymidine incorporation at 96 hours
Method: as §1

MDA-A1 cells = assay: Inhibition of proliferation of MDA-A1 cells by the cytotoxic agents (14C-thymidine incorporation); details: 3 days culture, 14C-thymidine incorporation at 96 hours
Method: as §1

SMILES	IC50 (HCT116 cells) [nM]	IC50 (MDA-MB-231 cells) [nM]	IC50 (MDA-A1 cells) [nM]
COc1ccc(C[C@H]2NC(=O)/C=C/C[C@@H]([C@H](C)[C@H]3O[C@@H]3c3ccc(CO)cc3)OC(=O)[C@H](CC(C)C)OC(=O)C(C)(C)CNC2=O)cc1Cl [Compound 1, reference compound]	0.032	0.041	1.07
COc1ccc(C[C@H]2NC(=O)/C=C/C[C@@H]([C@H](C)[C@H]3O[C@@H]3c3ccc(CN4CCN(C(=O)CCC(C)(C)SSC)CC4)cc3)OC(=O)[C@H](CC(C)C)OC(=O)C(C)(C)CNC2=O)cc1Cl [Compound 7, (E)-(3S,10R,16S)-10-(3-Chloro-4-methoxybenzyl)-3-isobutyl-6,6-dimethyl-16-[(S)-1-((2R,3R)-3-{4-[4-(4-methyl-4-methyldisulfanylpentanoyl)piperazin-1-ylmethyl]phenyl}oxiranyl)-ethyl]-1,4-dioxa-8,11-diazacyclohexadec-13-ene-2,5,9,12-tetraone]	0.315	0.303	7.95
COc1ccc(C[C@H]2NC(=O)/C=C/C[C@@H]([C@H](C)[C@H]3O[C@@H]3c3ccc(CO)cc3)OC(=O)[C@H](CC(C)C)OC(=O)[C@H](C)CNC2=O)cc1Cl [Compound 8, reference compound]	0.052	0.104	0.828
COc1ccc(C[C@H]2NC(=O)/C=C/C[C@@H]([C@H](C)[C@H]3O[C@@H]3c3ccc(CNCC(C)(C)SSC)cc3)OC(=O)[C@H](CC(C)C)OC(=O)C(C)(C)CNC2=O)cc1Cl [Compound 13, (E)-(3S,10R,16S)-10-(3-Chloro-4-methoxybenzyl)-3-isobutyl-16-[(S)-1-((2R,3R)-3-{4-[(2-methyl-2-methyldisulfanylpropylamino)methyl]phenyl}oxiranyl)ethyl]-6,6-dimethyl-1,4-dioxa-8,11-diazacyclohexadec-13-ene-2,5,9,12-tetraone]	0.336	0.529	9.76
COc1ccc(C[C@H]2NC(=O)/C=C/C[C@@H]([C@H](C)[C@H]3O[C@@H]3c3ccc(CN4CCN(CC(C)(C)SSC)CC4)cc3)OC(=O)[C@H](CC(C)C)OC(=O)C(C)(C)CNC2=O)cc1Cl [Compound 19, (E)-(3S,10R,16S)-10-(3-Chloro-4-methoxybenzyl)-3-isobutyl-6,6-dimethyl-16-[(S)-1-((2R,3R)-3-{4-[4-(2-methyl-2-methyldisulfanylpropyl)piperazin-1-ylmethyl]phenyl}oxiranyl)ethyl]-1,4-dioxa-8,11-diazacyclohexadec-13-ene-2,5,9,12-tetraone]	0.152	0.149	2.71
COc1ccc(C[C@H]2NC(=O)/C=C/C[C@@H]([C@H](C)[C@H]3O[C@@H]3c3ccc(CN(C)CCOCCOCCOCCN(C)CC(C)(C)SSC)cc3)OC(=O)[C@H](CC(C)C)OC(=O)C(C)(C)CNC2=O)cc1Cl [Compound 30]	0.031	0.03	11.9
C=CCOC(=O)CN1CCN(Cc2ccc([C@H]3O[C@@H]3[C@@H](C)[C@@H]3C/C=C/C(=O)N[C@H](Cc4ccc(OC)c(Cl)c4)C(=O)NCC(C)(C)C(=O)O[C@@H](CC(C)C)C(=O)O3)cc2)CC1 [Compound 40, Allyl (4-{4-[(2R,3R)-3-((S)-1-{(E)-(3S,10R,16S)-10-[3-chloro-4-methoxybenzyl]-3-isobutyl-6,6-dimethyl-2,5,9,12-tetraoxo-1,4-dioxa-8,11-diazacyclohexadec-13-en-16-yl}ethyl)-oxiranyl]benzyl}piperazin-1-yl)acetate]	0.12	0.293	1.58
C=CCOC(=O)CCOCCOCCOCCOCCNCc1ccc([C@H]2O[C@@H]2[C@@H](C)[C@@H]2C/C=C/C(=O)N[C@H](Cc3ccc(OC)c(Cl)c3)C(=O)NCC(C)(C)C(=O)O[C@@H](CC(C)C)C(=O)O2)cc1 [Compound 44, Allyl (2-{2-[2-(2-{4-[(2R,3R)-3-((S)-1-{(E)-(3S,10R,16S)-10-[3-chloro-4-methoxy-benzyl]-3-isobutyl-6,6-dimethyl-2,5,9,12-tetraoxo-1,4-dioxa-8,11-diazacyclohexadec-13-en-16-yl}ethyl)oxiranyl]benzylamino}ethoxy)ethoxy]ethoxy}ethoxy)propanoate]	0.135	0.156	15.6
COc1ccc(C[C@H]2NC(=O)/C=C/C[C@@H]([C@H](C)[C@@H]3O[C@H]3c3ccc(CO)cc3)OC(=O)[C@H](CC(C)C)OC(=O)C(C)(C)CNC2=O)cc1Cl [Compound 57]	1.13	1.19	29
COC(=O)CCCc1cn(Cc2ccc([C@H]3O[C@@H]3[C@@H](C)[C@@H]3C/C=C/C(=O)N[C@H](Cc4ccc(OC)c(Cl)c4)C(=O)NCC(C)(C)C(=O)O[C@@H](CC(C)C)C(=O)O3)cc2)nn1 [Compound 62, Methyl (1-{4-[(2R,3R)-3-((S)-1-{(E)-(3S,10R,16S)-10-[3-chloro-4-methoxybenzyl]-3-isobutyl-6,6-dimethyl-2,5,9,12-tetraoxo-1,4-dioxa-8,11-diazacyclohexadec-13-en-16-yl}ethyl)-oxiranyl]benzyl}-1H-1,2,3-triazol-4-yl)butanoate]	0.035	0.095	10.9
COc1ccc(C[C@H]2NC(=O)/C=C/C[C@@H]([C@H](C)[C@H]3O[C@@H]3c3ccc(CN)cc3)OC(=O)[C@H](CC(C)C)OC(=O)C(C)(C)CNC2=O)cc1Cl [Compound 77, (E)-(3S,10R,16S)-16-{(S)-1-[(2R,3R)-3-(4-Aminomethylphenyl)oxiranyl]ethyl}-10-(3-chloro-4-methoxybenzyl)-3-isobutyl-6,6-dimethyl-1,4-dioxa-8,11-diazacyclohexadec-13-ene-2,5,9,12-tetraone]	0.105	0.17	15.1
